No end group written: not given here.
Assays:
[1] = tested on: C4‐2 xenografts; assay: C4‐2 subcutaneous xenograft, tumor growth; format: in vivo, nude mice; settings: 2 mg kg^−1, subcutaneous injection, every three days for three weeks, n = 5 per group
Method: (§1) Two administration routes were tested in the xenograft models, with subcutaneous injection (SC.) in C4‐2 models and intraperitoneal injection (IP.) in CWR‐22rv1 models. […] Each injection volume was 100 µl and PBS was used as control.
(§2) IHC score analysis was performed by the Image J IHC profiler.
(§3) A) Tumor growth curves of C4‐2 xenografts in nude mice treated as indicated (n = 5 per group). Statistical analysis was performed using the nonparametric Kruskal‐Wallis test; ****, p < 0.0001. The data are presented as the mean ± SD values (n = 5). B) Photos of C4‐2 tumors excised at the end of the experiment after different drug treatments. C) Average weight of tumors excised from each group of mice at the end of drug treatment. The data are presented as the mean ± SD values (n = 5). […] IHC scores were determined with ImageJ: 4, highly positive; 3, positive; 2, minimally positive; 1, negative. […] […]
(§4) Treatment of five groups of mice (5 mice per group) was initiated (i.e., day 1) after tumors were established in 2 weeks as palpable masses (50 mm^3). […] The tumor length and width were measured with calipers, and the tumor volume was calculated using the following equation: tumor volume (V) = length × width^2/2. […] All IHC staining images were scored using ImageJ profiler as published protocol.

[2] = tested on: CWR22Rv1 xenografts; assay: CWR22Rv1 subcutaneous xenograft, tumor growth; format: in vivo, nude mice; settings: 2 mg kg^−1, intraperitoneal injection, every three days for three weeks, n = 5 per group
Method: as §1, §2, §3, §4

[3] = tested on: AR ΔDBD; assay: ITC binding to AR ΔDBD; settings: AR with mutation of amino acids (575‐591) in the DBD
Method: To determine the specificity of AR pep‐PROTAC, mutation of amino acids (575‐591) in the AR DBD plasmid was conducted.
ITC (isothermal titration calorimetry) was an established technique that can determine the binding ability between protein and ligands. The signal measured was the heat released upon the interaction of the two reactants. All proteins – MDM2, AR‐V7, or AR ΔDBD were obtained with E.Coli expression and purified by affinity chromatography. All peptides were synthesized by solid‐phase peptide synthesis and purified by preparative high‐performance liquid chromatography. For ITC experiments, clean sample cells and injection syringe were cleaned according to the manufacturer's protocol before loading protein and peptide. Rinse the sample cell several times with 2 ml of buffer. Load the sample cell with 0.2 ml of protein solution (all proteins concentration were around 20 µM), being careful to avoid bubble formation, load the syringe with 0.04 ml peptide solution (all peptides concentrations were around 200 µM). Choose the temperature at 25 °C for the ITC experiments. a small volume (0.4 µl) for the first injection was used and keep the subsequent injections at the desired volume (2 µl for 19 injections). Once the experiment had finished, the ITC data was fitted with the analysis software for the instrument.
Figure S20. Binding affinity between AR pep-PROTAC and AR-ΔDBD measured […]

[4] = tested on: AR in CWR22rv1 cells; assay: Immunoblot AR degradation, CWR22rv1; format: cell-based; settings: immunoblot (Figure S16)
Method: H, I) IB analysis of WCLs from C4‐2 cells (H) and LNCaP cells (I) treated with CHX for the indicated times, with or without 250 nM Au‐AR DBD PROTAC drug treatment. The signal intensity of AR normalized to that of Vinculin was quantified. […] The signal intensities of AR and AR‐V7 normalized to that of Vinculin were quantified separately.
To investigate the AR cleavage ability of the Au‐AR DBD PROTAC drug, an immunoblot (IB) analysis of AR was performed. The primary antibody (catalog number:sc‐7305) targeting AR we used is raised against amino acids 299–315 of AR, so we could determine both AR and AR‐V7 at the same time.
Immunoblotting was performed to determine the AR amount after Au‐AR DBD PROTAC treatment. Cells were lysed in EBC buffer (50 mM Tris (pH 7.5), 120 mM NaCl, and 0.5% NP‐40) supplemented with protease inhibitors. Cell lysates were quantified by a Pierce bicinchoninic acid (BCA) Protein Assay Kit (Thermo Fisher). Equal amounts of total proteins were loaded for western blotting analysis. The proteins were separated by SDS‐PAGE gels. Then proteins were transferred to polyvinylidene fluoride (PVDF) membranes and incubated with specific primary antibodies at 4 °C overnight. After incubating with HRP‐conjugated secondary antibody for 1 h at room temperature, the protein immunoreactive signals were tested.

Compound: CNC(=O)c1ccc(N2C(=S)N(c3ccc(C#N)c(C(F)(F)F)c3)C(=O)C2(C)C)cc1F [enzalutamide]
- effect on tumor growth, C4‐2 xenograft [1]: inhibited tumor growth
- effect on tumor growth, CWR22Rv1 xenograft [2]: but not the CWR22Rv1 xenograft model

Compound: YLCSSNNNRERDKFRRGGSGGTSFEQFWAWLWP-NH2 (C-terminus assumed) [AR pep‐PROTAC]
- interaction with AR ΔDBD by ITC [3]: no interaction

Compound: N#Cc1ccc(O[C@H]2CC[C@H](NC(=O)c3ccc(N4CCC(CN5CCN(c6cc7c(cc6F)C(=O)N(C6CCC(=O)NC6=O)C7=O)CC5)CC4)nn3)CC2)cc1Cl (stereo partly shown) [ARV‐110]
- full‐length AR degradation in CWR22rv1 cells (in words) [4]: induced full‐length AR degradation

— article PMC9534960, “De Novo Design of an Androgen Receptor DNA Binding Domain‐Targeted peptide PROTAC for Prostate Cancer Therapy” (Advanced Science, 2022)
